Data reported in patent US6841236B2, “Articles containing thioxanthone dyes” (3M Innovative Properties Co., priority 2001, dated 2005).

Tests used:
[1] = Daytime color of polyurethane film with dye laminated to retroreflective sheeting; assay type: physicochemical; conditions: dye 0.2 wt.-% in aliphatic polyester polyurethane PN03.214, 0.1 mm film on Scotchlite 3970
Description: (§1) The daytime color of each article was measured using a Labsphere BFC-450 Bispectral Colorimeter commercially available from Labsphere, North Sutton, N.H. The daytime chromaticity (x,y), total luminance factor (YT), and fluorescence luminance factor (YF; which is a measure of the fluorescent properties of the article) calculated for the CIE D65 and the CIE 1931 observer are provided in TABLE II
Examples 24-27 were prepared as described in Examples 8-10, except that the dyes of Examples 1, 3, 6-(2-hydroxy-ethoxy)-14H-anthra(2,1,9-mna)thioxanthene-14-one (described by Carlini et al.) and 6-methoxy-14H-anthra(2,1,9-mna)thioxanthene-14-one were independently used at 0.2 wt.-% loading in an aliphatic polyester polyurethane resin commercially available from Huntsman Polyurethanes, West Deptford, N.J., USA under the trade designation “PN03.214”. The extrusion conditions for the polyurethane were 154-191° C. and the resultant film thickness was 0.1 mm.
The resultant films were laminated to Scotchlite 3970 reflective sheeting on aluminum panels as described in Examples 8-10. Color values were measured as described in Examples 8-10 and the results set out in TABLE VII.

[2] = Daytime color of Paraloid B66 dye coating on retroreflective sheeting; assay type: physicochemical
Description: as §1
Examples 19-21 were prepared by independently stirring 0.10 parts of the dyes of Examples 1 and 3 and 6-methoxy-14H-anthra(2,1,9-mna)thioxanthene-14-one in a clear vehicle solution of 64.8 parts Dowanol DPMA and 38.2 parts Paraloid B66.
The fluorescent dye solutions were coated on Scotchlite 3970 reflective sheeting using a #16 wire wound bar. The coating was air dried for 5 minutes and then dried in a 120° C. oven for 45 minutes. Color values were measured as described in Examples 8-10 and the results set out in TABLE V.

[3] = 0.10 parts dye in 64.8 parts Dowanol DPMA and 38.2 parts Paraloid B66, coated on Scotchlite 3970 with #16 wire wound bar, dried

## CCCCCCCCOc1cc2c3ccccc3c(=O)c3ccc4c5ccccc5sc1c4c32 [Example 1, 6-n-Octyloxy-14H-anthra(2,1,9mna)thioxanthene-14-one]
[1]
  X (daytime chromaticity): 0.5739
  YF (fluorescence luminance factor): 11.83
  YT (total luminance factor): 17.46
  y (daytime chromaticity): 0.2692
[2]; [3]
  YF (fluorescence luminance factor): 11.09
  YT (total luminance factor): 30.10
  x (daytime chromaticity): 0.4381
  y (daytime chromaticity): 0.2980
[2]; dye in Paraloid B66 coating on Scotchlite 3970
  appearance of coated article: bright fluorescent pink appearance
